In article PMC6544300, “Mechanism of the efflux transport of demethoxycurcumin-O-glucuronides in HeLa cells stably transfected with UDP-glucuronosyltransferase 1A1” (PLoS ONE, 2019):
Like-named read-outs stand apart in the source and are kept apart here.

Tests used:
BCRP transporter = tested on: BCRP transporter; design: method as in PMID 25587128; settings: cited from earlier work
MRP1 = tested on: MRP1; design: method as in PMID 26502886; settings: MRP1-mediated transport; cited from earlier work
MRP2 = tested on: MRP2; design: method as in PMID 26502886; settings: MRP2-mediated transport; cited from earlier work
BCRP = target: T1, BCRP (Homo sapiens, UniProt Q9UNQ0); design: method as in PMID 28925930; settings: following curcumin pretreatment; subjects with ABCG2 421CC genotype; cited from earlier work
T1 sequence (Q9UNQ0 1-655): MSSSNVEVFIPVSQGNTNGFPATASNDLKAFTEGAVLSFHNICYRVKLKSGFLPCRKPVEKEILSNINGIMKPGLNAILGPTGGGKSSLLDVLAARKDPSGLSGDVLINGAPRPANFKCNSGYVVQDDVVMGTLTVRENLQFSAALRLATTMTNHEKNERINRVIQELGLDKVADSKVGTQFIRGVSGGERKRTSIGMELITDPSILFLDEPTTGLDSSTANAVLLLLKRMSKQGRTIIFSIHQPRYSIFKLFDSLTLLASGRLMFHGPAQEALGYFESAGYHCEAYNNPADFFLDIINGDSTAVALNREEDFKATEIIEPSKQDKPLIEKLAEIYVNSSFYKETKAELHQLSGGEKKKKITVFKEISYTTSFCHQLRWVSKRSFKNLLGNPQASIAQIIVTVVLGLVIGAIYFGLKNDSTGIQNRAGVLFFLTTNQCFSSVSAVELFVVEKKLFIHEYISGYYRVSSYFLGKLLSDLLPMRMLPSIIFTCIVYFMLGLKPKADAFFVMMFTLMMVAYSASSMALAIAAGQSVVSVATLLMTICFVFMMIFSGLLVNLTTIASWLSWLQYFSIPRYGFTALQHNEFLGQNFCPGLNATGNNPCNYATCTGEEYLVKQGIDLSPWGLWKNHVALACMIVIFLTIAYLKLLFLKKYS

HeLa1A1 cell lysate = target: T2, HeLa1A1 cell lysate (Homo sapiens, UniProt P22309); experiment: DMC-O-glucuronidation kinetics by HeLa1A1 cell lysate; assay type: in vitro ADME; settings: for Km / Vmax: Michaelis-Menten model; for CLint: Vmax/Km
T2 construct: expressed in transfected cells; host or cells: HeLa cells stably overexpressing UGT1A1 (HeLa1A1), used as cell lysate
T2 sequence (P22309 26-533): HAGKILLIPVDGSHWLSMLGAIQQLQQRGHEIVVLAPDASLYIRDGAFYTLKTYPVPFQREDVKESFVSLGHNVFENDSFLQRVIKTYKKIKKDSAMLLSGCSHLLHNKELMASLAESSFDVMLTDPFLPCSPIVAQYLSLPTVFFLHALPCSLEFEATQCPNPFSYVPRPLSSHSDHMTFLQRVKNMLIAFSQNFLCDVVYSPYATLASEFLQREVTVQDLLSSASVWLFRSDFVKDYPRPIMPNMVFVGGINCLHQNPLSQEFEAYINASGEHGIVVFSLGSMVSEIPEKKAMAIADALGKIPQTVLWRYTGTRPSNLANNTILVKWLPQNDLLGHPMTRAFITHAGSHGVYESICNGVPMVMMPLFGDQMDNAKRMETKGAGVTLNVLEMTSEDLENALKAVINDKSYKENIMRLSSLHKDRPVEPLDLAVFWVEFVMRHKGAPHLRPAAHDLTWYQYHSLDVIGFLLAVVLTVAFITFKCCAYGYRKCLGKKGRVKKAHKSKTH
Procedure: HeLa1A1 cells were grown in 10-cm dishes for 72 h and then washed and harvested in 50 mM Tris buffer (pH 7.4). The collected cells were sonicated using […] in an ice-cold water bath (4°C). Subsequently, the cell lysates were centrifuged at 13,800 x g for 10 min (4°C). The supernatant was collected for use in the UGT glucuronidation activity assay. The protein concentration was determined using the bicinchoninic acid (BCA) assay (Beyotime, Shanghai, China). Due to the thermal stability of UGT1A1, the glucuronidation activity of UGT1A1 was not affected during sonication process.
(§1) The glucuronidation assay was performed as previously described. Briefly, alamethicin (22 μg/mL), D-saccharic-1,4-lactone (4.4 mM), MgCl2 (0.88 mM), UGT1A1 (1.0 mg/mL) or HeLa1A1 cell lysates (2.3 mg/mL) and DMC (0.5 to 40 μM) were mixed in a 50 mM Tris buffer (pH 7.4). After a preincubation at 37°C for 5 min, UDPGA (3.5 mM) was added to the incubation system, and the mixture was further incubated. After 30 min, the reactions were terminated by the addition of ice-cold acetonitrile (200 μL). The mixed samples were centrifuged at 13,800 x g for 10 min, and the supernatant was analyzed using UHPLC.
(§2) The best model was selected based on a visual inspection of the Eadie-Hofstee plots. Briefly, the rates (V) of glucuronide formation at various substrate concentrations (S) were fitted based on the standard Eq (3). Km represents the Michaelis-Menten constant and Vmax represents the maximum rate of glucuronidation. The intrinsic clearance (CLint) was derived from Vmax/Km. Model fitting and parameter estimation were performed by GraphPad Prism V5 software (SanDiego, CA, USA).

HeLa1A1 cells = experiment: Toxicity of DMC toward HeLa1A1 cells during excretion experiments; assay type: cell-based, human; settings: DMC 4 μM
[1] = design: method as in PMID 24480327; settings: 2 g curcuminoids incl. 12% DMC orally, two healthy volunteers; below detection limit; cited from earlier work
[2] = design: method as in earlier work; settings: cited from earlier work
UGT1A1 [3] = tested on: UGT1A1; design: method as in PMID 17628876; settings: cited from earlier work
UGT1A3 = tested on: UGT1A3; design: method as in PMID 17628876; settings: cited from earlier work
UGT1A8 = tested on: UGT1A8; design: method as in PMID 17628876; settings: cited from earlier work
UGT1A10 = tested on: UGT1A10; design: method as in PMID 17628876; settings: cited from earlier work
UGT2B7 = tested on: UGT2B7; design: method as in PMID 17628876; settings: cited from earlier work
CYP2C9 = tested on: CYP2C9; design: method as in PMID 21287405; settings: human CYP2C9; cited from earlier work
CYP3A4 = tested on: CYP3A4; design: method as in PMID 21287405; settings: human CYP3A4; cited from earlier work
CYP1A2 = tested on: CYP1A2; design: method as in PMID 21287405; settings: human CYP1A2; cited from earlier work
CYP3As = tested on: CYP3As; design: method as in PMID 18480186; settings: cited from earlier work
2C9 = tested on: 2C9; design: method as in PMID 18480186; settings: cited from earlier work
SULTs = tested on: SULTs; design: method as in PMID 18480186; settings: cited from earlier work
UGTs = tested on: UGTs; design: method as in PMID 18480186; settings: cited from earlier work
[4] = tested on: human intestinal P-glycoprotein (P-gp); design: method as in PMID 19879740; settings: cited from earlier work
UGT1A1 [5] = target: T3, UGT1A1 (Homo sapiens, UniProt P22309); experiment: DMC-O-glucuronidation kinetics by recombinant UGT1A1; assay type: in vitro ADME; design: purchased Corning Biosciences; settings: for CLint: Vmax/Km; for Vmax: UGT1A1, Michaelis-Menten model
T3 sequence (P22309 26-533): T2 sequence (P22309 26-533)
Procedure: as §1, §2

[6] = formation of G1, HeLa1A1 cell lysate
[7] = formation of G2, HeLa1A1 cell lysate

COc1cc(/C=C/C(=O)CC(=O)/C=C/c2ccc(O)c(OC)c2)ccc1O [curcumin]
Ki (BCRP transporter): 0.7 µM | IC50 (MRP1): 15 µM | IC50 (MRP2): 5 µM | increase in AUC of orally administered salazosulfapyridine (SASP) (BCRP): 3.2 fold

Demethoxycurcumin [DMC]
Km (HeLa1A1 cell lysate; [6]): 5 ± 1.3 µM | Vmax (HeLa1A1 cell lysate; [6]): 264.5±22.3 ( ^***) pmol/min/mg | CLint (HeLa1A1 cell lysate; [6]): 53.0±14.5 ( ^***) μL/min/mg | Km (HeLa1A1 cell lysate; [7]): 3.8 ± 0.9 µM | Vmax (HeLa1A1 cell lysate; [7]): 167.4±11.3 (^###) pmol/min/mg | CLint (HeLa1A1 cell lysate; [7]): 43.9±10.4 (^###) μL/min/mg | toxicity toward HeLa1A1 cells (HeLa1A1 cells): did not exert significant toxicity | DMC concentration [1]: < 2.0 ng/mL | tissue distribution of free DMC ([2]; heart): ~140 ng/g | tissue distribution of free DMC ([2]; intestine): ~150000 ng/g | tissue distribution of free DMC ([2]; kidney): ~80 ng/g | tissue distribution of free DMC ([2]; liver): approximately 120 ng/g | tissue distribution of free DMC ([2]; spleen): ~50 ng/g | catalytic activity (glucuronidation of DMC) (UGT1A1 [3]): approximately 1600 pmol/min/mg | catalytic activity (glucuronidation of DMC) (UGT1A3): less than 1100 pmol/min/mg | catalytic activity (glucuronidation of DMC) (UGT1A8): less than 1100 pmol/min/mg | catalytic activity (glucuronidation of DMC) (UGT1A10): less than 1100 pmol/min/mg | catalytic activity (glucuronidation of DMC) (UGT2B7): less than 1100 pmol/min/mg | IC50 (CYP2C9): 1.4 µM | IC50 (CYP3A4): 7 µM | IC50 (CYP1A2): 34 µM | IC50 (CYP3As): 31.5 µM | IC50 (2C9): 8.8 µM | IC50 (SULTs): 1.7 µM | IC50 (UGTs): 13.9 µM | inhibition of P-gp activities [4]: capable of inhibiting | Km (UGT1A1 [5]; formation of G1, UGT1A1, Michaelis-Menten model): 4.5 ± 0.9 µM | CLint (UGT1A1 [5]; formation of G1, UGT1A1): 225.9 ± 47.3 µL/min/mg | Vmax (UGT1A1 [5]; formation of G1 from DMC (0.5-40 μM)): 1006.0 ± 62.8 pmol/min/mg | Km (UGT1A1 [5]; formation of G2, UGT1A1, Michaelis-Menten model): 2.7 ± 0.5 µM | CLint (UGT1A1 [5]; formation of G2, UGT1A1): 212.6 ± 38.3 µL/min/mg | Vmax (UGT1A1 [5]; formation of G2 from DMC (0.5-40 μM)): 576.1 ± 27.0 pmol/min/mg
